Columns and labels:
Escherichia coli = test: Activity in vivo: survival of intraperitoneally infected mice; conditions: sc, 96 h; mice infected i.p. with Escherichia coli; s.c. twice, 1 h and 3 h after infection; survival on 4th day; read-out: CD50 (dosage at which 50% of the animals survive)
How it was run: (§1)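 First, groups of five mice receive the pathogen suspension intraperitoneally. Next, test substance dissolved in saline is injected subcutaneously at 1 h and again at 3 h. Finally, surviving animals are counted on day 4 and the 50%-survival dose interpolated as CD50 (mg/kg).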

Klebsiella pneumoniae = test: as above; conditions: sc, 96 h; mice infected i.p. with Klebsiella pneumoniae; s.c. twice, 1 h and 3 h after infection; survival on 4th day; read-out: CD50 (dosage at which 50% of the animals survive)
How it was run: as §1

Staphylococcus aureus = test: as above; conditions: sc, 96 h; mice infected i.p. with Staphylococcus aureus; s.c. twice, 1 h and 3 h after infection; survival on 4th day; read-out: CD50 (dosage at which 50% of the animals survive)
How it was run: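 CD50 (mg/kg): interpolated dose protecting half the mice at day 4. Infection route i.p., aqueous suspension; treatment s.c. in physiological NaCl, 1 h + 3 h post-infection; n=5 per dose group.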

Streptococcus pyogenes = test: as above; conditions: sc, 96 h; mice infected i.p. with Streptococcus pyogenes; s.c. twice, 1 h and 3 h after infection; survival on 4th day; read-out: CD50 (dosage at which 50% of the animals survive)
How it was run: as §1

Pseudomonas aeruginosa = test: as above; conditions: sc, 96 h; mice infected i.p. with Pseudomonas aeruginosa; s.c. three times, 1 h, 3 h and 5 h after infection; survival on 4th day; read-out: CD50 (dosage at which 50% of the animals survive)
How it was run: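 Mice (5/group) infected intraperitoneally, then given compound in physiological saline subcutaneously at 1 and 3 h post-infection (in some cases three times, at 1, 3 and 5 h). Survivors counted on day 4; CD50 (mg/kg), the dose giving 50% survival, interpolated from several dosages.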

Toxicity, LD50 = conditions: in vivo, po

`CO/N=C(\C(=O)N[C@@H]1C(=O)N2C(C(=O)OCOC(=O)C(C)(C)C)=C(C)CS[C@H]12)c1c[se]c(N)n1` [Product H, Methylene (6R, 7R)-7-[2-(2-amino-4-selenazolyl)-2-[(Z)-methoxyimino]-acetamido]-3-methyl-8-oxo-5-thia-1-azabicyclo[4.2.0]oct-2-ene-2-carboxylate pivalate] showed an ED50 (Escherichia coli) of 0.11 mg/kg, an ED50 (Klebsiella pneumoniae) of 0.44 mg/kg and an ED50 (Staphylococcus aureus) greater than 12 mg/kg. The ED50 (Streptococcus pyogenes) was 0.13 mg/kg, the ED50 (Pseudomonas aeruginosa) was greater than 100 mg/kg and the LD50 (Toxicity, LD50) was greater than 5000 mg/kg.

Source: patent publication US4593093A, “Acyl derivatives” (priority 1980, dated 1986)
